Reference: patent publication US7468457B2, “Ligand inhibitors of the RAR receptors, process for preparing same and therapeutic/cosmetic applications thereof” (Galderma Research & Development, priority 2002, dated 2008)

What was measured:
Assay type in all cases: cell-based
RAR ALPHA = molecular target: T1, RAR ALPHA (Homo sapiens, UniProt P10276); assay: Transactivation test (luciferase reporter, HeLa stable transfectants), RAR alpha; settings: HeLa cells; for Kd: apparent Kd from Schild regression of crossed curves against reference agonist, read-out: RAR ALPHA Kd app; for IC50: inhibition at the reference agonist concentration that gives 80% activation
T1 sequence (P10276 183-417 limits assumed): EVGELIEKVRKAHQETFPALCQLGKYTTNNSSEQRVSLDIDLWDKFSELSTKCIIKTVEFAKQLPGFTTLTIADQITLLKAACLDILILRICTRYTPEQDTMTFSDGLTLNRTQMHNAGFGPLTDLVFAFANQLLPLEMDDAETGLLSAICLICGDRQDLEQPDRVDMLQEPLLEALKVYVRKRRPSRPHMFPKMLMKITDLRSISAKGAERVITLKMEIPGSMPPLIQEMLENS
Method: (§1) The activation of receptors with an agonist (activator) in HeLa cells leads to the expression of a reporter gene, luciferase, which, in the presence of a substrate, generates light. The activation of the receptors may thus be measured by quantifying the luminescence produced after incubating the cells in the presence of a reference agonist. The inhibitory products displace the agonist from its site, thus preventing activation of the receptor. The activity is measured by quantifying the reduction in light produced. This measurement makes it possible to determine the inhibitory activity of the compounds according to the invention.
(§2) Determination of the Kdapp:
(§3) In this study, a constant is determined which represents the affinity of the molecule for the receptor. Since this value can fluctuate depending on the basal activity and the expression of the receptor, it is referred to as the Kd apparent (KdApp).
(§4) To determine this constant, “crossed curves” of the test product against a reference agonist, 4-[2-(5,5,8,8-tetramethyl-5,6,7,8-tetrahydro-2-naphthyl)propenyl]benzoic acid, are performed in 96-well plates. The test product is used at 10 concentrations and the reference agonist at 7 concentrations. In each well, the cells are in contact with a concentration of the test product and a concentration of the reference agonist, 4-[2-(5,5,8,8-tetramethyl-5,6,7,8-tetrahydro-2-naphthyl)propenyl]benzoic acid. Measurements are also taken for the total agonist (4-[2-(5,5,8,8-tetramethyl-5,6,7,8-tetrahydro-2-naphthyl)propenyl]benzoic acid) and inverse agonist, 4-{(E)-3-[4-(4-tert-butylphenyl)-5,5,8,8-tetramethyl-5,6,7,8-tetrahydro-2-naphthyl]-3-oxopropenyl}benzoic acid, controls.
(§5) These crossed curves make it possible to determine the AC50 values (concentration at which 50% activation is observed) for the reference ligand at various concentrations of test product. These AC50 values are used to calculate the Schild regression by plotting a straight line corresponding to the Schild equation (“quantition in receptor pharmacology” Terry P. Kenakin, Receptors and Channels, 2001,7,371-385).
(§6) In the case of an antagonist, an IC50 value (concentration that inhibits 50% of the activity) is calculated by plotting the curve of the product at the concentration of the reference ligand that gives 80% activation.
(§7) The HeLa cell lines used are stable transfectants containing the plasmids ERE-βGlob-Luc-SV-Neo (reporter gene) and RAR (α, β, γ) ER-DBD-puro. These cells are inoculated into 96-well plates at a rate of 10 000 cells per well in 100 μl of DMEM medium without phenol red, and supplemented with 10% defatted calf serum. The plates are then incubated at 37° C. and 7% CO2 for 4 hours.
(§8) The various dilutions of the test products, of the reference ligand (4-[2-(5,5,8,8-tetramethyl-5,6,7,8-tetrahydro-2-naphthyl)propenyl]benzoic acid), of the 100% control (100 nM 4-[2-(5,5,8,8-tetramethyl-5,6,7,8-tetrahydro-2-naphthyl)propenyl]benzoic acid) and of the 0% control (500 nM 4-{(E)-3-[4-(4-tert-butylphenyl)-5,5,8,8-tetramethyl-5,6,7,8-tetrahydro-2-naphthyl]-3-oxopropenyl}benzoic acid) are added at a rate of 5 μl per well. The plates are then incubated for 18 hours at 37° C. and 7% CO2.
(§9) The culture medium is removed by turning over and 100 μl of a 1:1 PBS/luciferine mixture is added to each well. After 5 minutes, the plates are read using the luminescence detector.

RAR BETA = molecular target: T2, RAR BETA (Homo sapiens, UniProt P10826); assay: Transactivation test (luciferase reporter, HeLa stable transfectants), RAR beta; settings: HeLa cells; for Kd: apparent Kd from Schild regression of crossed curves against reference agonist, read-out: RAR BETA Kd app; for IC50: inhibition at the reference agonist concentration that gives 80% activation
T2 sequence (P10826 183-455 limits assumed): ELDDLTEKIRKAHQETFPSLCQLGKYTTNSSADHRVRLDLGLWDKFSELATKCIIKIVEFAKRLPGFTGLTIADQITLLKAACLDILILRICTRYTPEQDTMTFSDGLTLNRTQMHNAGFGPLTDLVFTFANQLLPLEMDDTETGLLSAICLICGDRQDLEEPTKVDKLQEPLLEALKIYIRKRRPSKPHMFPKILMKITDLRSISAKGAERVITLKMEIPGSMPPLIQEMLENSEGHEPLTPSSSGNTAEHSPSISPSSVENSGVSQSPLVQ
Method: as §1, §2, §3, §4, §5, §6, §7, §8, §9

RAR GAMMA = molecular target: T3, RAR GAMMA (Homo sapiens, UniProt P13631); assay: Transactivation test (luciferase reporter, HeLa stable transfectants), RAR gamma; settings: HeLa cells; for Kd: apparent Kd from Schild regression of crossed curves against reference agonist, read-out: RAR GAMMA Kd app; for IC50: inhibition at the reference agonist concentration that gives 80% activation
T3 sequence (P13631 185-454 limits assumed): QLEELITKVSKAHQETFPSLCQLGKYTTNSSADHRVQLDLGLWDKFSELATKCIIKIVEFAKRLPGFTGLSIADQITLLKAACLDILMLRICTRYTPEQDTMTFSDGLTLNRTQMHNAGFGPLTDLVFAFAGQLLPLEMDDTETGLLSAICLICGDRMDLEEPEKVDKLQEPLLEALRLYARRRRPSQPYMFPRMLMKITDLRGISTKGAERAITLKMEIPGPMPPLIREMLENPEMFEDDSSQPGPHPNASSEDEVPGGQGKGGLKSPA
Method: as §1, §2, §3, §4, §5, §6, §7, §8, §9

| Kd (RAR ALPHA) [µM] | IC50 (RAR ALPHA) [µM] | Kd (RAR BETA) [µM] | IC50 (RAR BETA) [µM] | Kd (RAR GAMMA) [µM] | IC50 (RAR GAMMA) [µM] | SMILES |
| --- | --- | --- | --- | --- | --- | --- |
| 0.25 | 0.437 | 0.5 | 0.8 | 0.03 | 0.075 | Cc1ccc(-c2cc(C(O)/C=C/c3ccc(C(=O)O)cc3)cc3c2C(C)(C)CCC3(C)C)cc1 (stereo not drawn) [Ex. 9, 4-[(E)-3-Hydroxy-3-(5,5,8,8-tetramethyl-4-p-tolyl-5,6,7,8-tetrahydro-2-naphthyl)propenyl]benzoic Acid] |
| 0.001 | 0.00175 | 0.00025 | 0.0004 | 0.001 | 0.0025 | Cc1ccc(-c2cc(C(=O)/C=C/c3ccc(C(=O)O)cc3)cc3c2C(C)(C)CCC3(C)C)cc1 [Ex. 7] |
| 4 | 7 | 0.06 | 0.096 | 0.015 | 0.0375 | Cc1ccc(-c2cc(C(O)C#Cc3ccc(C(=O)O)cc3)cc3c2C(C)(C)CCC3(C)C)cc1 (stereo not drawn) [Ex. 5, 4-[3-Hydroxy-3-(5,5,8,8-tetramethyl-4-p-tolyl-5,6,7,8-tetrahydro-2-naphthyl)-1-propynyl]benzoic Acid] |
| 0.002 | 0.0035 | 0.004 | 0.0064 | 0.00025 | 0.000625 | CC(C)(C)c1ccc(-c2cc(C(=O)/C=C/c3ccc(C(=O)O)cc3)cc3c2C(C)(C)CCC3(C)C)cc1 [Ex. 8, 4-{(E)-3-[4-(4-tert-Butylphenyl)-5,5,8,8-tetramethyl-5,6,7,8-tetrahydro-2-naphthyl]-3-oxopropenyl}benzoic Acid] |
